The test system of data set [1] is human liver microsomes.
For data set [2] the following is noted: cited from earlier work.
For data set [3], the system named is human liver microsomes. The data set is described as follows: Chemical inhibition of GLB metabolite formation in human liver microsomes. To be noted: GLB 1.25 μM; for effect on the formation of any of the four metabolites (M1, M2b, M4, M5): SUL […], QUI 0.45 μM, TTEPA 20 μM.
For data set [4] the following is noted: read-out: apparent Km values for GLB metabolism; cited from earlier work.
For data set [5] the following is noted: cited from earlier work. The source holds these as a separate data set.
The test system of another data set is CYP3A. To be noted: cited from earlier work.
Another data set deals with CYP2C19. To be noted: cited from earlier work.
Substrate in data set [6]: COc1ccc(Cl)cc1C(=O)NCCc1ccc(S(=O)(=O)NC(=O)NC2CCCCC2)cc1
The data set is described as follows: cells, lysate or membranes named. To be noted: substrate depletion, 37.0 °C.

[7] abbreviates: value stated to be within the range.
The mark [8] stands for this setting: 1 μM ketoconazole, no inhibitor = 100%.
[9] abbreviates: 4 μM montelukast, no inhibitor = 100%.
Setting [10] is: other: CYP3A5 supersomes 30 pmol/ml.
[11] abbreviates: other: CYP2C8 supersomes 40 pmol/ml.
The mark [12] stands for this setting: other: CYP2C19 supersomes 30 pmol/ml.

On to `COc1ccc(Cl)cc1C(=O)NCCc1ccc(S(=O)(=O)NC(=O)N[C@H]2CCC[C@@H](O)C2)cc1` (relative stereo) [M2b, 3-cis-hydroxycyclohexyl glyburide (axial)], for which the “peak area of metabolite as % of that of M5” value with human liver microsomes [1] was roughly 43%. Besides, in data set [2], the pharmacological activity entry is recorded as “pharmacologically active”.
In the case of `COc1ccc(Cl)cc1C(=O)NCCc1ccc(S(=O)(=O)NC(=O)N[C@@H]2CCCC[C@H]2O)cc1` (relative stereo) [M4, 2-trans-hydroxycyclohexyl glyburide], the “peak area of metabolite as % of that of M5” value in the data set with human liver microsomes [1] is given as roughly 8%.
With `COc1ccc(Cl)cc1C(=O)NCCc1ccc(S(=O)(=O)NC(=O)N[C@H]2CC[C@H](O)CC2)cc1` [M1, 4-trans-hydroxycyclohexyl glyburide], the “peak area of metabolite as % of that of M5” value in the data set with human liver microsomes [1] is recorded as “approximately 56%”. Also, the pharmacological activity entry in data set [2] is “pharmacologically active”.
On to `COc1ccc(Cl)cc1C(=O)NCCc1ccc(S(=O)(=O)NC(=O)NC2CCCC(O)C2)cc1` (stereo not drawn) [M3, 3-trans-hydroxycyclohexyl glyburide], for which, in the data set with human liver microsomes [1], the “peak area of metabolite as % of that of M5” value is listed as roughly 16%.
In the case of `Nc1ccc(S(=O)(=O)Nc2ccnn2-c2ccccc2)cc1` [Sulfaphenazole, sulfaphenazole], the “effect on the formation of any of the four metabolites (M1, M2b, M4, M5)” value (from here on “effect on the formation”) with human liver microsomes [3] was “no significant effects”.
`COc1ccc(Cl)cc1C(=O)NCCc1ccc(S(=O)(=O)NC(=O)NC2CCCCC2)cc1` [glyburide, Glyburide]: the Michaelis-Menten constant (Km) in data set [4] was 5 to 11 µM. Moreover, the peak plasma concentration entry in data set [5] (after a single oral dose of 20 mg GLB) is on record as “approximately 1.25 μM”. Besides, in data set [5] (setting [7]), the “free therapeutic plasma concentration” value is “approximately 1.25 nM” and the “total therapeutic plasma concentration” value was roughly 0.125 µM.
Turning to `CC(=O)N1CCN(c2ccc(OCC3COC(Cn4ccnc4)(c4ccc(Cl)cc4Cl)O3)cc2)CC1` (stereo not drawn) [ketoconazole], the inhibition constant (Ki) in the data set with CYP3A was […]. For the same molecule, in the data set with human liver microsomes [3] (setting [8]), the “formation of M1, % of the controls” value was “approximately 60%”; the “formation of M4, % of the controls” value is given as roughly 5%; the “formation of M5, % of the controls” value is reported as roughly 4%.
Regarding `CC(C)(O)c1ccccc1CC[C@@H](SCC1(CC(=O)O)CC1)c1cccc(/C=C/c2ccc3ccc(Cl)cc3n2)c1` [montelukast], in the data set with human liver microsomes [3] (setting [9]), the “formation of M1, % of the controls” value was “approximately 50%” and the “formation of M4, % of the controls” value is roughly 65%.
With `COc1ccc2[nH]c([S+]([O-])Cc3ncc(C)c(OC)c3C)nc2c1` (stereo not drawn) [omeprazole], the inhibitory constant (Ki) with CYP2C19 is 3000 nM.
For the molecule `C=C[C@H]1C[N@@]2CC[C@H]1C[C@@H]2[C@@H](O)c1ccnc2ccc(OC)cc12` [quinidine], in the data set with human liver microsomes [3], the “effect on the formation” value is “no significant effects”.
Regarding `S=P(N1CC1)(N1CC1)N1CC1` [thioTEPA, triethylenethiophosphoramide], the “effect on the formation” value in the data set with human liver microsomes [3] is “no significant effects”.
“an ethyl hydroxycyclohexyl glyburide [M5]”: the “relative metabolite formation in human liver microsome incubations” value in the data set with human liver microsomes [1] is “major metabolite formed”.

B1: human CYP3A5 (Homo sapiens) (protein)
chain: MDLIPNLAVETWLLLAVSLVLLYLYGTRTHGLFKRLGIPGPTPLPLLGNVLSYRQGLWKFDTECYKKYGKMWGTYEGQLPVLAITDPDVIRTVLVKECYSVFTNRRSLGPVGFMKSAISLAEDEEWKRIRSLLSPTFTSGKLKEMFPIIAQYGDVLVRNLRREAEKGKPVTLKDIFGAYSMDVITGTSFGVNIDSLNNPQDPFVESTKKFLKFGFLDPLFLSIILFPFLTPVFEALNVSLFPKDTINFLSKSVNRMKKSRLNDKQKHRLDFLQLMIDSQNSKETESHKALSDLELAAQSIIFIFAGYETTSSVLSFTLYELATHPDVQQKLQKEIDAVLPNKAPPTYDAVVQMEYLDMVVNETLRLFPVAIRLERTCKKDVEINGVFIPKGSMVVIPTYALHHDPKYWTEPEEFRPERFSKKKDSIDPYIYTPFGTGPRNCIGMRFALMNMKLALIRVLQNFSFKPCKETQIPLKLDTQGLLQPEKPIVLKVDSRDGTLSGE
As to B1, in data set [6] (setting [10]), the Michaelis-Menten constant (Km) worked out at 4.2 ± 1.5 µM, the catalytic constant (kcat) stood at 0.0317 ± 0.0122 s⁻¹ and the kcat/Km amounted to 7670 ± 833 M⁻¹ s⁻¹.

B2: human CYP2C8 (Homo sapiens) (protein)
chain: MEPFVVLVLCLSFMLLFSLWRQSCRRRKLPPGPTPLPIIGNMLQIDVKDICKSFTNFSKVYGPVFTVYFGMNPIVVFHGYEAVKEALIDNGEEFSGRGNSPISQRITKGLGIISSNGKRWKEIRRFSLTTLRNFGMGKRSIEDRVQEEAHCLVEELRKTKASPCDPTFILGCAPCNVICSVVFQKRFDYKDQNFLTLMKRFNENFRILNSPWIQVCNNFPLLIDCFPGTHNKVLKNVALTRSYIREKVKEHQASLDVNNPRDFIDCFLIKMEQEKDNQKSEFNIENLVGTVADLFVAGTETTSTTLRYGLLLLLKHPEVTAKVQEEIDHVIGRHRSPCMQDRSHMPYTDAVVHEIQRYSDLVPTGVPHAVTTDTKFRNYLIPKGTTIMALLTSVLHDDKEFPNPNIFDPGHFLDKNGNFKKSDYFMPFSAGKRICAGEGLARMELFLFLTTILQNFNLKSVDDLKNLNTTAVTKGIVSLPPSYQICFIPV
As to B2, in data set [6] (setting [11]), the Michaelis constant (Km) is 7.7 ± 2.3 µM, the kcat came out at 0.0417 ± 0.0133 s⁻¹ and the specificity constant (kcat/Km) came out at 5330 ± 500 M⁻¹ s⁻¹.

B3: human CYP2C19 (Homo sapiens) (protein)
chain: MDPFVVLVLCLSCLLLLSIWRQSSGRGKLPPGPTPLPVIGNILQIDIKDVSKSLTNLSKIYGPVFTLYFGLERMVVLHGYEVVKEALIDLGEEFSGRGHFPLAERANRGFGIVFSNGKRWKEIRRFSLMTLRNFGMGKRSIEDRVQEEARCLVEELRKTKASPCDPTFILGCAPCNVICSIIFQKRFDYKDQQFLNLMEKLNENIRIVSTPWIQICNNFPTIIDYFPGTHNKLLKNLAFMESDILEKVKEHQESMDINNPRDFIDCFLIKMEKEKQNQQSEFTIENLVITAADLLGAGTETTSTTLRYALLLLLKHPEVTAKVQEEIERVIGRNRSPCMQDRGHMPYTDAVVHEVQRYIDLIPTSLPHAVTCDVKFRNYLIPKGTTILTSLTSVLHDNKEFPNPEMFDPRHFLDEGGNFKKSNYFMPFSAGKRICVGEGLARMELFLFLTFILQNFNLKSLIDPKDLDTTPVVNGFASVPPFYQLCFIPV
As for B3, in data set [6] (setting [12]), the Michaelis-Menten constant (Km) turned out to be 15.1 ± 2.3 µM, the catalytic constant (kcat) turned out to be 0.16 ± 0.025 s⁻¹ and the catalytic efficiency (kcat/Km) amounted to 10500 ± 333 M⁻¹ s⁻¹.
